# System: MCH receptors
# Experiment: MCH receptor activity class (method not given)
# Settings: class 1-3 by percent of control at 10^-7 M or IC50
row,SMILES,class
1,CN(C)c1ccnc(N[C@H]2CC[C@@H](CNC(=O)Cc3ccc(F)cc3)CC2)n1 [compound 413],3 (Class 3 The value of percent of control at 10^−7 M was more than 60% or the value of IC50 was more than 200 nM.)
2,"COc1ccc(CC(=O)NC[C@H]2CC[C@@H](Nc3nccc(N(C)C)n3)CC2)cc1 [compound 414, N-[(cis-4-{[4-(dimethylamino)pyrimidin-2-yl]amino}cyclohexyl)methyl]-2-(4-methoxyphenyl)acetamide]",2 (Class 2: The value of percent of control at 10^−7 M was from 40% to 60% or the value of IC′50 was from 50 nM to 200 nM.)
3,Cc1cc(C(=O)NC[C@H]2CC[C@@H](Nc3nccc(N(C)C)n3)CC2)c(C(F)(F)F)o1 [compound 415],3 (Class 3 The value of percent of control at 10^−7 M was more than 60% or the value of IC50 was more than 200 nM.)
4,Cc1cc(C(=O)NC[C@H]2CC[C@@H](Nc3nccc(N(C)C)n3)CC2)c(C)o1 [compound 416],3 (Class 3 The value of percent of control at 10^−7 M was more than 60% or the value of IC50 was more than 200 nM.)
5,CCOc1ccccc1C(=O)NC[C@H]1CC[C@@H](Nc2nccc(N(C)C)n2)CC1 [compound 417],3 (Class 3 The value of percent of control at 10^−7 M was more than 60% or the value of IC50 was more than 200 nM.)
6,CN(C)c1ccnc(N[C@H]2CC[C@@H](CNC(=O)c3ccc(F)c(Cl)c3)CC2)n1 [compound 418],3 (Class 3 The value of percent of control at 10^−7 M was more than 60% or the value of IC50 was more than 200 nM.)
7,Cc1ccc(C(=O)NC[C@H]2CC[C@@H](Nc3nccc(N(C)C)n3)CC2)cc1F [compound 419],3 (Class 3 The value of percent of control at 10^−7 M was more than 60% or the value of IC50 was more than 200 nM.)
8,CN(C)c1ccnc(N[C@H]2CC[C@@H](CNC(=O)CC3CCCC3)CC2)n1 [compound 420],3 (Class 3 The value of percent of control at 10^−7 M was more than 60% or the value of IC50 was more than 200 nM.)
9,COc1cc(OC)cc(C(=O)NC[C@H]2CC[C@@H](Nc3nccc(N(C)C)n3)CC2)c1 [compound 421],3 (Class 3 The value of percent of control at 10^−7 M was more than 60% or the value of IC50 was more than 200 nM.)
10,CN(C)c1ccnc(N[C@H]2CC[C@@H](CNC(=O)c3ccc(C#N)cc3)CC2)n1 [compound 422],3 (Class 3 The value of percent of control at 10^−7 M was more than 60% or the value of IC50 was more than 200 nM.)
11,"CN(C)c1ccnc(N[C@H]2CC[C@@H](CNC(=O)c3cc(C(F)(F)F)cc(C(F)(F)F)c3)CC2)n1 [compound 423, N-[(cis-4-{[4-(dimethylamino)pyrimidin-2-yl]amino}cyclohexyl)methyl]-3,5-bis(trifluoromethyl)benzamide]",2 (Class 2: The value of percent of control at 10^−7 M was from 40% to 60% or the value of IC′50 was from 50 nM to 200 nM.)
12,CN(C)c1ccnc(N[C@H]2CC[C@@H](CNC(=O)/C=C/c3ccc([N+](=O)[O-])cc3)CC2)n1 [compound 424],1 (Class 1: The value of percent of control at 10^−7 M was less than 40% or the value of IC50 was less than 50 nM.)
13,CN(C)c1ccnc(N[C@H]2CC[C@@H](CNC(=O)Cc3ccccc3Br)CC2)n1 [compound 425],2 (Class 2: The value of percent of control at 10^−7 M was from 40% to 60% or the value of IC′50 was from 50 nM to 200 nM.)

# Same assay, conditions: class by percent of control at 10^-7 M or IC50
row,SMILES,class
1,COc1ccc(OC)c(CC(=O)NC[C@H]2CC[C@@H](Nc3nccc(N(C)C)n3)CC2)c1 [compound 380],3 (Class 3 The value of percent of control at 10^−7 M was more than 60% or the value of IC50 was more than 200 nM.)
2,CCSc1ncccc1C(=O)NC[C@H]1CC[C@@H](Nc2nccc(N(C)C)n2)CC1 [compound 381],3 (Class 3 The value of percent of control at 10^−7 M was more than 60% or the value of IC50 was more than 200 nM.)
3,CN(C)c1ccnc(N[C@H]2CC[C@@H](CNC(=O)c3ccc(F)cc3)CC2)n1 [compound 382],3 (Class 3 The value of percent of control at 10^−7 M was more than 60% or the value of IC50 was more than 200 nM.)
4,CN(C)c1ccnc(N[C@H]2CC[C@@H](CNC(=O)c3cc(F)cc(C(F)(F)F)c3)CC2)n1 [compound 383],3 (Class 3 The value of percent of control at 10^−7 M was more than 60% or the value of IC50 was more than 200 nM.)
5,CN(C)c1ccnc(N[C@H]2CC[C@@H](CNC(=O)c3cc(F)c(Cl)cc3Cl)CC2)n1 [compound 384],2 (Class 2: The value of percent of control at 10^−7 M was from 40% to 60% or the value of IC′50 was from 50 nM to 200 nM.)
6,CCCCCC(=O)NC[C@H]1CC[C@@H](Nc2nccc(N(C)C)n2)CC1 [compound 385],3 (Class 3 The value of percent of control at 10^−7 M was more than 60% or the value of IC50 was more than 200 nM.)
7,CN(C)c1ccnc(N[C@H]2CC[C@@H](CNC(=O)c3ccc(I)cc3)CC2)n1 [compound 386],3 (Class 3 The value of percent of control at 10^−7 M was more than 60% or the value of IC50 was more than 200 nM.)
8,CSc1ncccc1C(=O)NC[C@H]1CC[C@@H](Nc2nccc(N(C)C)n2)CC1 [compound 387],3 (Class 3 The value of percent of control at 10^−7 M was more than 60% or the value of IC50 was more than 200 nM.)
9,Cc1ccc(C(=O)NC[C@H]2CC[C@@H](Nc3nccc(N(C)C)n3)CC2)cc1[N+](=O)[O-] [compound 388],3 (Class 3 The value of percent of control at 10^−7 M was more than 60% or the value of IC50 was more than 200 nM.)
10,CN(C)c1ccnc(N[C@H]2CC[C@@H](CNC(=O)c3cccc([N+](=O)[O-])c3)CC2)n1 [compound 389],3 (Class 3 The value of percent of control at 10^−7 M was more than 60% or the value of IC50 was more than 200 nM.)
11,CN(C)c1ccnc(N[C@H]2CC[C@@H](CNC(=O)Cc3ccccc3)CC2)n1 [compound 390],3 (Class 3 The value of percent of control at 10^−7 M was more than 60% or the value of IC50 was more than 200 nM.)
12,CN(C)c1ccnc(N[C@H]2CC[C@@H](CNC(=O)C3C[C@H]3c3ccccc3)CC2)n1 (stereo partly shown) [compound 391],3 (Class 3 The value of percent of control at 10^−7 M was more than 60% or the value of IC50 was more than 200 nM.)
13,CN(C)c1ccnc(N[C@H]2CC[C@@H](CNC(=O)c3ccc4c(c3)OCO4)CC2)n1 [compound 392],3 (Class 3 The value of percent of control at 10^−7 M was more than 60% or the value of IC50 was more than 200 nM.)
14,Cc1cccc(C(=O)NC[C@H]2CC[C@@H](Nc3nccc(N(C)C)n3)CC2)c1 [compound 395],3 (Class 3 The value of percent of control at 10^−7 M was more than 60% or the value of IC50 was more than 200 nM.)
15,Cc1ccc(C(=O)NC[C@H]2CC[C@@H](Nc3nccc(N(C)C)n3)CC2)cc1 [compound 396],3 (Class 3 The value of percent of control at 10^−7 M was more than 60% or the value of IC50 was more than 200 nM.)
16,CN(C)c1ccnc(N[C@H]2CC[C@@H](CNC(=O)c3cccs3)CC2)n1 [compound 397],3 (Class 3 The value of percent of control at 10^−7 M was more than 60% or the value of IC50 was more than 200 nM.)
17,CN(C)c1ccnc(N[C@H]2CC[C@@H](CNC(=O)Cc3cccs3)CC2)n1 [compound 398],3 (Class 3 The value of percent of control at 10^−7 M was more than 60% or the value of IC50 was more than 200 nM.)
18,CN(C)c1ccnc(N[C@H]2CC[C@@H](CNC(=O)c3cccc(OC(F)(F)F)c3)CC2)n1 [compound 399],3 (Class 3 The value of percent of control at 10^−7 M was more than 60% or the value of IC50 was more than 200 nM.)
19,CN(C)c1ccnc(N[C@H]2CC[C@@H](CNC(=O)OCc3ccccc3)CC2)n1 [compound 400],3 (Class 3 The value of percent of control at 10^−7 M was more than 60% or the value of IC50 was more than 200 nM.)
20,CN(C)c1ccnc(N[C@H]2CC[C@@H](CNC(=O)OCc3ccc([N+](=O)[O-])cc3)CC2)n1 [compound 401],3 (Class 3 The value of percent of control at 10^−7 M was more than 60% or the value of IC50 was more than 200 nM.)
21,Cc1cc(C(=O)NC[C@H]2CC[C@@H](Nc3nccc(N(C)C)n3)CC2)ccc1Br [compound 402],3 (Class 3 The value of percent of control at 10^−7 M was more than 60% or the value of IC50 was more than 200 nM.)
22,CN(C)c1ccnc(N[C@H]2CC[C@@H](CNC(=O)c3cccc(I)c3)CC2)n1 [compound 403],3 (Class 3 The value of percent of control at 10^−7 M was more than 60% or the value of IC50 was more than 200 nM.)
23,CN(C)c1ccnc(N[C@H]2CC[C@@H](CNC(=O)c3cccc(Cl)c3F)CC2)n1 [compound 404],3 (Class 3 The value of percent of control at 10^−7 M was more than 60% or the value of IC50 was more than 200 nM.)
24,Cc1ccc(C(=O)NC[C@H]2CC[C@@H](Nc3nccc(N(C)C)n3)CC2)c(F)c1F [compound 405],3 (Class 3 The value of percent of control at 10^−7 M was more than 60% or the value of IC50 was more than 200 nM.)
25,CN(C)c1ccnc(N[C@H]2CC[C@@H](CNC(=O)c3ccc(F)cc3Cl)CC2)n1 [compound 406],3 (Class 3 The value of percent of control at 10^−7 M was more than 60% or the value of IC50 was more than 200 nM.)
26,CN(C)c1ccnc(N[C@H]2CC[C@@H](CNC(=O)c3ccc(F)c(Cl)c3F)CC2)n1 [compound 407],3 (Class 3 The value of percent of control at 10^−7 M was more than 60% or the value of IC50 was more than 200 nM.)
27,CN(C)c1ccnc(N[C@H]2CC[C@@H](CNC(=O)CSc3ccccc3)CC2)n1 [compound 408],3 (Class 3 The value of percent of control at 10^−7 M was more than 60% or the value of IC50 was more than 200 nM.)
28,CN(C)c1ccnc(N[C@H]2CC[C@@H](CNC(=O)c3cccc(C(F)(F)F)c3F)CC2)n1 [compound 409],3 (Class 3 The value of percent of control at 10^−7 M was more than 60% or the value of IC50 was more than 200 nM.)
29,CN(C)c1ccnc(N[C@H]2CC[C@@H](CNC(=O)c3cc(C(F)(F)F)ccc3F)CC2)n1 [compound 410],3 (Class 3 The value of percent of control at 10^−7 M was more than 60% or the value of IC50 was more than 200 nM.)
30,COc1cccc(CC(=O)NC[C@H]2CC[C@@H](Nc3nccc(N(C)C)n3)CC2)c1 [compound 412],2 (Class 2: The value of percent of control at 10^−7 M was from 40% to 60% or the value of IC′50 was from 50 nM to 200 nM.)
